Test results reported in US10590094B2, “Aminothiazole derivatives useful as antiviral agents” (Innovative Molecules GmbH, priority 2016, dated 2020).
Converted amounts (≈) assume the structure as drawn. “And” between values parts separate entries of the source, which are not always exact repeats. Equal values may be shown once.

Key:
HSV-1 [1] = assay: activity selectivity assay, HSV-1 infected Vero cells (cytopathogenic effect, fluorescein diacetate readout); type: cell-based, Herpes simplex virus; conditions: Human alphaherpesvirus 1
Protocol: (§1) HSV (HSV-1 Walki, HSV-1F, HSV-2 MS, HSV clinical isolates and HSV resistant strains) was cultivated on Vero cells (ATCC CCL-81) under the following conditions: The cells were grown in M199 medium (5% foetal calf serum, 2 mM glutamine, 100 IU/mL penicillin, 100 μg/mL streptomycin) in cell culture bottles at 37° C. and 5% CO2. The cells were splitted twice per week (1:4). For the infection, the medium was removed, the cells were washed with Hank's solution, detached using 0.05% trypsin, 0.02% EDTA and incubacted at a density of 4×10^5 cells/mL under the above-mentioned conditions for 24 h. The medium was removed and the virus solution was added at an m.o.i of <0.05 in a volume of 2 mL per 175 cm^2 surface. The infected cells were incubated at 37° C., 5% CO2 for 1 h and then the medium was made up to a volume of 50 mL per 175 cm^2 bottle. […] The virus was released by freezing (−80° C.) and thawing (37° C.) the infected cultures twice. Cell debris was removed by centrifugation (300 g, 10 min, 4° C.) and the supernatant was frozen in aliquots at −80° C.
(§2) The antiviral action was determined using a patented (DE10235967 and WO2004/015416) and subsequently published activity selectivity assay (G. Kleymann et al. J. Biomol. Screen. 2004; 9:578) in 96- or 384-well mictrotitre plates using various cell lines of neuronal, lymphoid and epithelial origin, such as, for example, Vero (african green monkey kidney cells), MEF (murine embryonal fibroblasts), HELF (human embryonal fibroblasts), NT2 (human neuronal cell line) or Jurkat (human lymphoid T-cell line). The relevant experimental details of the above mentioned patent and publication to evaluate the antiviral activity of the invention (disclosed compounds) are described below.
(§3) The effect of the substances on the spreading of the cytopathogenic effect was determined in comparison to the reference compound acyclovir-sodium (Zovirax™), a clinically approved anti-herpes chemotherapeutic.
(§4) The compounds (50 mM stock solution dissolved in DMSO) are examined on microtitre plates (for example 96-well flat bottom cell culture plates) at a final concentration of 250 to 0.5 μM or, in case of potent antiviral compounds, 250 to 0.5 nM in 2 to 4 replications (4 to 2 substances per plate). Also examined are toxic and cytostatic effects or precipitation of the compounds. After an appropriate dilution of the compounds (1:2) on the microtitre plate in the appropriate medium (100 μL), a suspension of cells (50 μL, 1×10^4 cells per well), such as, for example of Vero cells in M199 (medium 199 with 5% foetal calf serum, 2 mM glutamine and optionally 100 IU/ml penicillin and 100 μg/ml streptomycin) or of MEF or HELF cells in EMEM (Eagle's Minimum Essential Medium with 10% foetal calf serum, 2 mM glutamine and optionally 100 IU/mL penicillin and 100 μg/mL streptomycin), or of NT2- and Jurkat cells in DMEM (([…] glucose plus pyridoxin) with 10% foetal calf serum, 2 mM glutamine, 1 mM sodium pyruvate, non-essential amino acids and optionally 100 IU/mL penicillin and 100 μg/mL streptomycin) is added to each well and the cells in the relevant wells are infected with the appropriate amount of virus (HSV-1 or HSV-2 having an m.o.i (multiplicity of infection) of 0.0025 for Vero, HELF and MEF cells and an m.o.i. of 0.1 for NT2 and Jurkat cells). The plates are then incubated at 37° C. in a cell CO2 incubator (5% CO2) for several days. After this time, the cell lawn of, for example, Vero cells in the substance-free virus controls, starting from 25 infections centres, is completely destroyed or lysed by the cytopathogenic effect (CPE) of the Herpes viruses (100% CPE). The plates are initially evaluated visually using a microscope and then analysed using a fluorescent dye. To this end, the cell supernatant of all wells of the MTP is aspirated and the wells are filled with 250 μL PBS (phosphate buffered saline) wash solution. […]

HSV-1 ACV resistant = assay: activity selectivity assay, ACV resistant HSV-1; type: cell-based, Herpes simplex virus; conditions: Human alphaherpesvirus 1, read-out: IC50 (HSV-1 ACV resistant)
Protocol: as §1, §2, §3, §4

HSV-2 = assay: activity selectivity assay, HSV-2 infected Vero cells; type: cell-based, Herpes simplex virus; conditions: Human alphaherpesvirus 2
Protocol: as §1, §2, §3, §4

Human Carboanhydrase II = Human Carboanhydrase II (Homo sapiens, UniProt P00918); assay: carbonic anhydrase activity assay (pH indicator method); type: biochemical
Protocol: Carbonic anhydrase II activity and its respective inhibition was performed according to R. Iyer et al. J. Biomol. Screen.
A protocol for determination of the carbonic anhydrase enymatic activity at rt using the pH indicator method is described below:
1 μL inhibitor (50 mM stock solution in DMSO) is diluted to a final test concentration ranging from 100 μM down to 1 nM (or 1 μL water in controls) and incubated for 2 min with 0.5 to 2 EU human […] (180 U/mg) in 400 μL water and 200 μL phenol red indicator solution (20 mg/L). An enzymactic unit (EU) is defined as an amount which doubles the non catalyzed rate. […] The time to colour change (pH 7.2) is determined with a microchronometer or stop watch.
The percentage of inhibition is calculated as described below: (time to color change without enzyme time to color change with enzyme and inhibitor)/(time to color change without enzyme time to color change with enzyme).

[2] = aqueous solubility (PBS, pH 7.4), shake flask; type: physicochemical
Protocol: The aqueous solubility (PBS, pH 7.4) was determined at Eurofins, Cerep, Panlabs according to C. A. Lipinski et al. Adv. Drug Del. Rev. 1997, 46:3. Measurement of the aqueous solubility was performed according to Lipinski, C. A. et al. (1997), Adv. Drug Del. Rev., 46: 3-26. The relevant information from the literature is described below. […] In addition, chromatographic purity (%) was defined as the peak area of the principal peak relative to the total integrated peak area in the HPLC chromatogram of the calibration standard.

HSV-1 [3] = assay: HSV-1 intranasal infection mouse model, survival; type: in vivo; conditions: Human alphaherpesvirus 1, inhaled or nasal, 120 h; female BALB/ABom mice, intranasal HSV-1, treatment for 5 days; read-out: ED50 (dose at which 50% of the infected animals survive)
Protocol: Animal experiments were performed according to patent WO2001/047904 or subsequent publications (U. A. K. Betz et al. Antimicrob. Agents Chemother. 2002; 46:1766 or G. Kleymann et al. Nat. Med. 2002; 8:392). The relevant experimental details of the above mentioned patent and publication to evaluate the antiviral activity of the invention (disclosed compounds) in-vivo (animal models) are described below.
6 week-old female mice, BALB/ABom strain were obtained from a commercial breeder.
The animals were anaesthetized with Et2O in a sealed glass vessel. 50 μL of a dilution of the virus stock (infection dose 5×10^4 PFU (Plaque forming units)) were introduced into the nose of the anaesthetized animals using a pipette. In 90 to 100% of the animals, this infection dose causes death by generalized infection with prominent respiratory and central-nervous symptoms on average after 5 to 8 days.
6 hours after infection animals were treated with doses of 0.1-150 mg/kg of body mass, 3 times per day at 7 am, 2 pm and 7 pm (tid) or 2 times per day at 7 am and 7 pm (bid) or once daily at 1 pm (od) for a period of 5 days. […] After the last administration, the animals were monitored further and the time of death was determined.

[4] = pharmacokinetics in male mice strain C57BL/6J; type: in vivo; conditions: mouse
Protocol: Pharmcokinetic parameters were determined for Example 3 in male mice strain C57BL/6J at an intraveneous (i.v.) dose of 5 mg/kg (5% DMSO in heterologous plasma, 2.5 ml/kg) and an oral dose (p.o) of 10 mg/kg (DMSO/0.5% HPMC (5:95), 5 ml/kg). […] Significant concentrations in the brain of treated mice (2-3 μM, 1000 ng compound/g brain) were detected 6 h post administration at an oral dose of 10 mg/kg.

Row | SMILES | IC50 (HSV-1 [1]) [nM] | IC50 (HSV-1 ACV resistant) [nM] | IC50 (HSV-2) [nM] | also measured
1 | Nc1nc2c(ncn2COCCO)c(=O)[nH]1 [Acyclovir, reference compound] | 500 to 3000 | > 25000 | 500 to 3000 | 
2 | Cc1nc(N(C)C(=O)Cc2ccc(-c3cc(F)ccc3F)cc2)sc1S(=N)(N)=O (stereo not shown) [Example 3, 2-(2′,5′-Difluoro-[1,1′-biphenyl]-4-yl)-N-methyl-N-(4-methyl-5-sulfamimidoylthiazol-2-yl)acetamide] | 5 to 50 | 5 to 50 | 5 to 50 | IC50 (Human Carboanhydrase II): > 5 µM; carboanhydrase inhibition (IC50) (Human Carboanhydrase II; text statement before Table 2): no or reduced carbonic anhydrase inhibition; solubility at 24 h ([2]; PBS buffer, aqueous buffer, kinetic from dmso stock, pH 7.4, shake flask, 24 h incubation, RT, read-out: Solubility [μM] (PBS, pH 7.4, 200 μM Test concentration)): 16.2 µM (≈ 7.07 µg/mL); solubility in comparison to Example 87 (WO2001/047904) ([2]; pH 7.4): significantly increased solubility (at least one order of magnitude); ED50 (HSV-1 [3]): < 10 mg/kg; concentration at 6 h ([4]; male, C57BL/6J, brain, mice, 6 h post administration, oral dose of 10 mg/kg): 2 µM to 3 µM and 1000 ng/g; bioavailability ([4]; plasma, oral, male C57BL/6J mice, 10 mg/kg p.o. vs 5 mg/kg i.v.): 94%; Tmax ([4]; plasma, po, male C57BL/6J mice, 10 mg/kg p.o.): 1 h; Cmax ([4]; plasma, po, male C57BL/6J mice, 10 mg/kg p.o., read-out: maximal plasma concentration (cmax)): 13.9 µM; half-life ([4]; plasma, male C57BL/6J mice, oral dose of 10 mg/kg, read-out: terminal half life (converted)): ~3.5 h
3 | Cc1nc(N(C)C(=O)Cc2ccc(-c3ccccn3)cc2)sc1S(=N)(N)=O (stereo not shown) [Example 3-1, N-methyl-N-(4-methyl-5-sulfamimdoylthiazol-2-yl)-2-(4-(pyridin-2-yl)phenyl)acetamide] | 5 to 50 | 5 to 50 | 5 to 50 | 
4 | Cc1nc(N(C)C(=O)Cc2ccc(-c3cc(F)ccc3F)cc2)sc1[S+](C)[O-] (stereo not shown) [Example 4, 2-(2′,5′-Difluoro-[1,1′-biphenyl]-4-yl)-N-methyl-N-(4-methyl-5-(methylsulfinyl)thiazol-2-yl)acetamide] | 100 to 500 | 100 to 500 | 100 to 500 | 
5 | Cc1nc(N(C)C(=O)Cc2ccc(-c3cc(F)ccc3F)cc2)sc1S(C)(=N)=O (stereo not shown) [Example 7, 2-(2′,5′-Difluoro-[1,1′-biphenyl]-4-yl)-N-methyl-N-(4-methyl-5-(S-methylsulfonimidoyl)thiazol-2-yl)acetamide] | 25 to 100 | 25 to 100 | 25 to 100 | 
6 | Cc1nc(N(C)C(=O)Cc2ccc(-c3cc(F)ccc3F)cc2)sc1P(=O)(O)O [Example 9, (2-(2-(2′,5′-Difluoro-[1,1′-biphenyl]-4-yl)-N-methylacetamido)-4-methylthiazol-5-yl)phosphonic acid] | 25000 to 100000 | 25000 to 100000 | 25000 to 100000 | 
7 | Cc1nc(N(C)C(=O)Cc2ccc(-c3cc(F)ccc3F)cc2)sc1S(=O)(=O)NC#N [Example 12, N-(5-(N-Cyanosulfamoyl)-4-methylthiazol-2-yl)-2-(2′,5′-difluoro-[1,1-biphenyl]-4-yl)-N-methylacetamide] | 100 to 1000 | 100 to 1000 | 100 to 1000 | 
8 | Cc1nc(N(C)C(=O)Cc2ccc(-c3cc(F)ccc3F)cc2)sc1/S(C)=N\C#N (stereo not shown) [Example 13, N-[5-(N-Cyano-S-methyl-sulfinimidoyl)-4-methyl-thiazol-2-yl]-2-[4-(2,5-difluorophenyl)phenyl]-N-methyl-acetamide] | 300 to 3000 | 300 to 3000 | 300 to 3000 | 
9 | Cc1nc(N(C)C(=O)Cc2ccc(-c3cc(F)ccc3F)cc2)sc1S(C)(=O)=NC#N (stereo not shown) [Example 14, N-[5-(N-Cyano-S-methyl-sulfonimidoyl)-4-methyl-thiazol-2-yl]-2-[4-(2,5-difluorophenyl)phenyl]-N-methyl-acetamide] | 1000 to 5000 | 1000 to 5000 | 1000 to 5000 | 
10 | CSc1sc(N(C)C(=O)Cc2ccc(-c3cc(F)ccc3F)cc2)nc1C [Example P4b, 2-(2′,5′-Difluoro-[1,1′-biphenyl]-4-yl)-N-methyl-N-(4-methyl-5-(methylthio)thiazol-2-yl)acetamide] | 2000 to 6000 | 2000 to 6000 | 2000 to 6000 | 
